From US20220387358A1, “CERAMIDE ANALOG SACLAC MODULATES SPHINGOLIPID LEVELS AND MCL-1 SPLICING TO INDUCE APOPTOSIS IN ACUTE MYELOID LEUKEMIA” (University of Virginia Patent Foundation, priority 2019, published 2022)

What was measured:
OCI-AML2 cells [1] = assay: Apoptosis by flow cytometry (Annexin V); assay type: cell-based, human; conditions: SACLAC 5 μM
Description: (§1) Apoptosis in cell lines was assessed after treating 2.5×10^5 cells per ml with drug or vehicle in a 48-well plate for the indicated time points and doses. Primary human AML cells were pre-incubated with SFEM for 48 hours before plating 2×10^5 cells in 24-well plates for the indicated times point and doses. Samples were stained using the Muse Annexin V & Dead Cell Kit (Millipore #MCH100105). Change in mitochondrial membrane potential in cell lines was measured with the Muse® MitoPotential Kit (#MCH100110, MilliporeSigma, Burlington, Mass., United States of America). Caspase activation was measured using the Muse® Caspase 3/7 Assay Kit (#MCH100108, MilliporeSigma, Burlington, Mass., United States of America). For rescue experiments, cells were plated at 2.5×10^4 well in a 96-well plate 24 hours after electroporation. Cells were treated with DMSO or SACLAC for 48 hours and apoptosis was detected as stated above. All kits were used according to manufacturer's protocol. Cells were then analyzed using the Muse® Cell Analyzer (MilliporeSigma, Burlington, Massachusetts, United States of America) (35,36). Experiments included positive and negative controls for proper analysis.

OCI-AML2 cells [2] = assay: Mitochondrial membrane potential (Muse MitoPotential Kit); assay type: cell-based, human; conditions: SACLAC 5 μM; time course
Description: as §1, with “SACLAC” left out

OCI-AML2 cells [3] = assay: Caspase 3/7 activation; assay type: cell-based, human; conditions: increasing doses; 24 hours
Description: as §1, with “SACLAC” left out

U937 AML cells = assay: U937 AML xenograft model in NSG mice; assay type: in vivo; conditions: 5 mg/kg tail-vein, five times per week, 15 injections
Description: MV4-11 AML cells expressing luciferase (luc2) and YFP (39) or U937 AML cells expressing luc2 and tdTomato (#72486, Addgene, Watertown, Mass., United States of America) were used to investigate the efficacy of SACLAC in NOD-scid […] (NSG) mice (Jackson Laboratories, Bar Harbor, Me., United States of America). Maximum tolerated dose and pharmacokinetic studies were also performed to determine safety and delivery of compound.
For the U937 model, 1×10^4 luciferase and tdTomato-expressing U937 cells in […] were introduced into 6- to 8-week-old female NSG mice via tail-vein injections. After six days, engraftment was confirmed as stated above. Mice were equally randomized into two groups of five mice and treated with vehicle or SACLAC at 5 mg/kg/day five times per week for 15 total injections. […]
Red blood cells (RBC) were lysed with RBC Lysis Buffer (#420301, BioLegend, San Diego, Calif., United States of America) followed by cell surface staining with anti-human CD45 antibodies (#304014, clone HI30, BioLegend, San Diego, Calif., United States of America) and 7AAD (#420404, BioLegend, San Diego, Calif., United States of America) to detect viable human white blood cells (WBC) using an LSR II flow cytometer and BD FACS Diva software. […] Percentage of YFP, tdTomato or hCD45 positive cells was determined in FlowJo software (Becton Dickinson, Franklin Lakes, N.J., United States of America). […]

[4] = Pharmacokinetics, SACLAC in blood/serum by mass spectrometry; assay type: in vivo
Description: More particularly, maximum tolerated dose of SACLAC was determined in NOD-scid IL2Rgamma^null (NSG) mice (n=5; Jackson Laboratories, Bar Harbor, Me., United States of America). Mice were injected with SACLAC reconstituted in β-HPCD (IV) daily for 5 days at a dose of 5 mg/kg body weight, respectively. For pharmacokinetics studies, Swiss Webster mice (n=3; Charles River Laboratories, Wilmington, Mass., United States of America) were injected with SACLAC dissolved in DMSO (40 mg/kg body weight, intraperitoneally) or dissolved in β-HPCD (5 mg/kg body weight, via tail-vein injection). Mice were euthanized and blood was harvested at time points ranging from 0 to 48 hours. Serum concentration of SACLAC was measured by mass spectrometry quantification relative to SACLAC standard using the method referenced above.

For CCCCCCCCCCCCCCC[C@@H](O)[C@H](CO)NC(=O)CCl [SACLAC, N-[(2S,3R)-1,3-dihydroxyoctadecan-2-yl]2-chloroacetamide], the apoptosis (OCI-AML2 cells [1]; 12 hours) was 79%, the apoptosis (OCI-AML2 cells [1]; 24 hours) was “nearly all cells undergoing apoptosis” and the “loss of mitochondrial membrane potential” value (OCI-AML2 cells [2]) was “occurred in parallel with positive staining for the apoptosis marker annexin V”. The “caspase 3/7 activation” value (OCI-AML2 cells [3]) was “dose-dependent caspase activation”, the “reduction in leukemic cells in the bone marrow” value (U937 AML cells) was “up to 50%” and the “maximal serum concentration, IV vs IP delivery” value ([4]; 5 mg/kg i.v. in β-HPCD vs 40 mg/kg i.p. in DMSO) was “higher maximal serum concentration than IP delivery”. For the same molecule, the “half-life in the blood” value ([4]; 40 mg/kg i.p. in DMSO or 5 mg/kg i.v. in β-HPCD) was “short half-life”, the “peak serum SACLAC levels” value ([4]; after changing administration route and vehicle) was “less than 1 μM” and the “uptake following i.p. injection” value ([4]; mouse, in vivo, ip) was “suboptimal uptake”.
